Results as given in patent publication US20040003429A1, “Pest control system” (priority 2000, published 2004).
Read-outs that look alike come from different tables or passages of the source.

Tests used:
[1] = tested on: Drosophila melanogaster (strain OR/R); test: survival of flies after insecticide treatment (FIG. 1); assay type: in vivo; conditions: 16 h after insecticide-treatment
[2] = tested on: Ceratitis capitata (strain Benakeion); test: as above; assay type: in vivo; conditions: 16 h after insecticide-treatment
[3] = tested on: acetylcholinesterase (AchE); conditions: cited from earlier work
[4] = tested on: tobacco budworm Heliothis virescens; conditions: cited from earlier work
[5] = tested on: nicotinergic acetylcholine receptor (nAcR); conditions: relative to imidacloprid; cited from earlier work
[6] = tested on: housefly; conditions: relative to imidacloprid; cited from earlier work
[7] = tested on: mixed function oxidase system; conditions: in vitro mixed function oxidase system; cited from earlier work
[8] = tested on: adult boll weevil Anthonomus granids Boheman; conditions: cited from earlier work

| SMILES | activity compared to Methamidophos [1] | sensitivity of flies ((%) survival) [1] | activity compared to Methamidophos [2] | sensitivity of flies ((%) survival) [2] | AchE inhibition [3] | activity in the tobacco budworm ([4]; acephate compared with methamidophos) | methamidophos observed in budworm larvae ([4]; within 2 hours of a topical acephate application) | decrease of binding affinity to nAcR [5] | potency in the housefly [6] | conversion to imidacloprid [7] | activity in the tobacco budworm ([4]; in vivo) | fold more toxic than acephate [8] |
| --- | --- | --- | --- | --- | --- | --- | --- | --- | --- | --- | --- | --- |
| COP(=O)(NC(C)=O)SC (stereo not drawn) [Acephate, O, S dimethyl acetylphosphoramidothicate] | less active | sensitive | less active | sensitive | not an AchE inhibitor | comparable activity | small amount of methamidophos |  |  |  |  |  |
| CN1CCN(Cc2ccc(Cl)nc2)C1=N[N+](=O)[O-] [N-Me-imidacloprid] |  |  |  |  |  |  |  | 100 fold | as potent as imidacloprid | can be converted to imidacloprid |  |  |
| COP(N)(=O)SC (stereo not drawn) [Methamidophos, O, S-dimethyl phosphoramidothicate] |  | sensitive |  | sensitive | potent acetylcholinesterase (AchE) inhibitor |  |  |  |  |  | comparable activity | 75 fold |
